Here are results for four compounds from US10285981B2, “Compositions and methods for treating amyotrophic lateral sclerosis in responders” (KNOPP BIOSCIENCES LLC, priority 2013, dated 2019).

Read-outs that look alike come from different tables or passages of the source. Where only a bound is given, the exact number is not on record here.

For data set [1], the system named is subjects with ALS. The text has this: Response is defined according to two criteria:
This analysis examined subgroup definitions based on both single and dual attribute criteria, and evaluated the performance of each subgroup with respect the two criteria above. To facilitate ranking of subgroups, we have defined a scoring metric which aggregates these two-dimensional scores into a single scalar called “score” in our report files. Larger scores are better: scores increase when mortality rates decrease, and when ALSFRS-R changes from baseline become more positive (i.e. score decreases are reduced). This scoring scheme is somewhat arbitrary; it merely serves to guide our maximization process and provide convenient rankings of subgroup quality. The definition of the score could certainly be altered to reflect different priorities on treatment effects with respect to mortality or disease progression. For this reason, we provide a complete spreadsheet of results, which can be re-sorted and re-ordered according to arbitrary balancing criteria.
1. Mortality for patients is defined by the value of the “end_status_study” field. Patients are deemed dead if and only if the value of this field is “DEATH”; any other value is interpreted as survival;
2. Disease symptom progression is measured in terms of the change in total ALSFRS-R score from baseline, as reported in the “change from baseline” attribute of each patient. Specifically, we take the value of “change from baseline” that is reported at the final measurement time for each patient.;
4. We impose minimum subgroup size filters on our results to exclude promising signals which arise due to sampling artifacts, or which would be too narrow for consideration in future studies. Analyses were run for minimum group sizes of both 50 patients (data not shown) and 100 patients (i.e. for a cutoff of N, we require at least N patients in that subgroup for both the treated and untreated groups).

Data set [2] has as its system dopamine receptors.
Data set [3] concerns subjects with ALS. Conditions: for decline in levels of serum creatinine: Part One; for mean decline in serum creatinine: Week 28. The text has this: Therefore, the Part 2, Week 28 visit was pre-specified as the primary time-point for all Part 2 data analyses.
In data set [4] the test system is subjects with ALS. The text has this:
Subjects with possible, probable, probable laboratory-supported, or definite ALS as defined by the El Escorial criteria who had ALS symptoms for ≤24 months at the time of entry into the study and a slow vital capacity of ≥65% of predicted were eligible to participate in this study. This study is described in more detail in the Examples.
Eligible subjects were between 18-80 years of age with a clinical diagnosis of possible, laboratory-supported probable, probable, or definite ALS, either familial or sporadic, in accordance with the revised El Escorial criteria. Subjects were required to have had onset of first ALS symptoms ≤24 months before Day 1 and an upright vital capacity of ≥65% of predicted value for age, height, and gender at screening. […] Subjects had to be able to swallow oral medications on Day 1 (FIG. 1).
Clinic visits and telephone calls/home visits may have occurred on alternating months. The primary efficacy analysis was a Combined Assessment of Function and Survival (CAFS), based on changes from baseline in the ALS Functional Rating Score-Revised (ALSFRS-R) scores or time to death using follow-up data through 12 months. […] Efficacy data was evaluated using 2-sided tests with α=0.05 for the primary and secondary endpoints. Adverse events and other safety indices were monitored throughout the study.
The primary endpoint of the method of Example 2 was the Combined Assessment of Function and Survival (CAFS), a joint-rank test that is a valid statistical approach for analyzing functional outcomes adjusted for mortality. The CAFS ranks subjects' outcomes based on both time to death and change from baseline in ALSFRS-R score using follow-up data through 12 months. CAFS is predicated on the comparison of outcomes of each subject to all other subjects in the study. A higher rank is assigned to subjects who survive versus those who die, and the change from baseline in the ALSFRS-R is used to rank each survivor. A higher CAFS ranking indicates a better global clinical outcome.
The ALSFRS-R score, VC, and McGill QoL-SIS scores were summarized by treatment group with the rate of change estimate derived from a linear mixed-effects model. Linear decline of the ALSFRS-R score over time has been shown previously. […] A mixed-model analysis was used to fit a model that included time, treatment group, and the interaction between time and treatment group simultaneously. The estimated coefficient of time, the slope, or rate of change, for each treatment group was used to test for differences between the treatment groups. Coefficient of time estimate along with its standard error was reported.
This is another data set of the same source.

Data set [5] concerns rodents. The settings on record: approximately.
For data set [6], the system named is humans. Conditions: cited from earlier work.
Data set [7] deals with rodents. Conditions: single oral dose, and above; cited from earlier work.
In data set [8] the test system is dogs. The settings on record: single oral dose, and above; cited from earlier work.
The test system of data set [9] is monkeys. Conditions: single oral dose; cited from earlier work.
The subject of data set [10] is ALS subjects. The settings on record: even after prolonged treatment; cited from earlier work.
Data set [11] has as its system ALS subjects. Conditions: human, in vivo.
For data set [12], the system named is subjects with ALS. Conditions: larger Phase III study; cited from earlier work.
[13] abbreviates: high-creatinine group, through 12 months.

`CCCN[C@@H]1CCc2nc(N)sc2C1` [dexpramipexole, (6R)-2-amino-4,5,6,7-tetrahydro-6-(propylamino)-benzothiazole]: in [1] (definite diagnosis subgroup), the “relative change in the mean ALSFRS-R change from baseline, treated vs untreated” value is on record as −8.3%. In data set [1] (in vivo), the “abs_mort_rate_change: absolute difference in mortality rate, treated vs untreated” value is −22.6%; the “mort rate change: relative change in mortality rate, treated vs untreated” value is given as −67.9%; the “mortality rate lower for treated patients” value is reported as 22.6 percentage points; the “score: combined score of mortality and ALSFRS-R treatment effects” value is recorded as 0.343. Further, the “trtd_mort_rate: mortality rate of treated patients” value in data set [1] (in vivo) is listed as 10.7%. For the same compound, in data set [1] (subgroup mean_pr_interval>184.5, minimum group size 100), the “relative change in the mean ALSFRS-R change from baseline, treated vs untreated” value is given as −20.5%. Further, in data set [1] (subgroup min_pr_interval>195), the “abs_alsfrs_change: absolute difference in mean ALSFRS-R total scores, treated vs untreated” value amounted to 5.623 points. Also, the “alsfrs change: relative change in mean ALSFRS-R change from baseline, treated vs untreated” value in [1] (subgroup min_pr_interval>195, minimum group size 50) is given as −26.6%. Besides, the “functional affinity difference between pramipexole and dexpramipexole for dopamine receptors” value in [2] is 10,000-20,000 folds. Moreover, the “decline in levels of serum creatinine” value in data set [3] (50 mg group) is 0.05. The “decline in levels of serum creatinine” value in [3] (150 mg group) came to 0.06. For the same compound, the “decline in levels of serum creatinine” value in data set [3] (300 mg group) is on record as 0.0. In [3] (Part Two, 300 mg daily dose, p=0.040), the “combined assessment of function and survival (CAFS)” value is “significantly reduced reduction”. In addition, the “mean decline in serum creatinine” value in data set [3] (Part Two, daily dose 50 mg) was −0.12. The “mean decline in serum creatinine” value in data set [3] (Part Two, daily dose 300 mg) is on record as “zero”. The “ALSFRS-R score change vs placebo group (exploratory analysis with covariate adjustment)” value in [4] (300 mg group, Month 18) was “significant improvement”. In data set [4] (300 mg/day), the “ALSFRS-R subdomain: behaviors associated with bulbar function, decline over baseline” value is given as “less dramatic decline” and the “ALSFRS-R subdomain: behaviors associated with fine motor skills” value is recorded as “dose dependent improvement over baseline”. In addition, the “combined assessment of function and survival (CAFS), least square means” value in data set [4] (high-creatinine group (baseline serum creatinine > about 72 μmol/L), 150 mg twice daily, through 12 months) came out at 184.86. The “slope of decline on the ALS Functional Rating Scale (Revised), least square means” value in data set [4] (high-creatinine group, 150 mg twice daily, through 12 months) is given as −0.925. Also, in data set [4] (setting [13]), the “ALSFRS-R slope of decline, improvement in least square means between treatment and placebo” value came to 18%; the “CAFS improvement in least square means between treatment and placebo” value stood at 19%. For the same compound, the “rate of mortality (Kaplan-Meier analysis)” value in data set [4] (high-creatinine group, treatment group at 12 months) was 10.3%.

In the case of `CCCN[C@H]1CCc2nc(N)sc2C1` [pramipexole, (6S)-2-amino-4,5,6,7-tetrahydro-6-(propylamino)benzothiazole], the “human dose equivalent to the rodent lethal dose, 70 kilogram individual” value in [5] is 500-850 milligrams. Also, the “maximally tolerated dose for humans” value in [6] (Boehringer Ingelheim product insert for Mirapex) is recorded as 4.5 milligrams per day. Besides, in [6] (human subjects), the “initial single dose not tolerated” value is listed as “greater than 0.20 milligrams”. Moreover, the “dose shown to cause somnolence” value in [6] (humans, as low as) was 1.5 milligrams. Besides, the “dose at which death occurred” value in data set [7] is recorded as 70-105 milligrams per kilogram. The “dose at which vomiting occurred” value in [8] was ≥ 0.0007 milligrams per kilogram. Moreover, in data set [9], the “dose at which major excitation was displayed” value was 3.5 milligrams per kilogram.

In the case of `Nc1nc2ccc(OC(F)(F)F)cc2s1` [riluzole], in data set [10], the “effect on ALSFRS-R score” value is “has not demonstrated any effect”. In addition, the “headaches reported, subjects receiving riluzole vs those not receiving riluzole” value in [11] was “four times as many subjects”.

Take `CC(=O)N1N=C(c2ccc(N)cc2)c2cc3c(cc2C[C@H]1C)OCO3` [talampanel]: the “treatment effects in ALS” value in [12] is listed as “failed to show any treatment effects”.
